Data: ChEMBL document CHEMBL4402585 (J Med Chem, 2020)
pIC50, pKd: −log10 of the molar value.

Assays:
[1] = Clearance in rat liver microsomes at 0.1 uM preincubated for 10 mins followed by NADPH addition and measured up to 60 mins by LC-MS/MS analysis; assay type: ADME, Microsome; conditions: 1 h
[2] = Clearance in mouse liver microsomes at 0.1 uM preincubated for 10 mins followed by NADPH addition and measured up to 60 mins by LC-MS/MS analysis; assay type: ADME, Microsome; conditions: 1 h
[3] = Half life in human liver microsomes at 0.1 uM preincubated for 10 mins followed by NADPH addition and measured up to 60 mins by LC-MS/MS analysis; assay type: ADME, Microsome
[4] = Half life in rat liver microsomes at 0.1 uM preincubated for 10 mins followed by NADPH addition and measured up to 60 mins by LC-MS/MS analysis; assay type: ADME, Microsome
[5] = Half life in mouse liver microsomes at 0.1 uM preincubated for 10 mins followed by NADPH addition and measured up to 60 mins by LC-MS/MS analysis; assay type: ADME, Microsome
[6] = Half life in Sprague-Dawley rat at 3 mg/kg, po by LC-MS/MS analysis; assay type: ADME, organism-based; conditions: in vivo
[7] = Cmax in Sprague-Dawley rat at 3 mg/kg, po by LC-MS/MS analysis; assay type: ADME, organism-based; design: dose 3 mg/kg, route oral; conditions: in vivo
[8] = AUC (0 to t) in Sprague-Dawley rat at 3 mg/kg, po by LC-MS/MS analysis; assay type: ADME, organism-based; conditions: in vivo
[9] = Half life in Sprague-Dawley rat at 1 mg/kg, iv by LC-MS/MS analysis; assay type: ADME, organism-based; conditions: in vivo
[10] = Clearance in Sprague-Dawley rat at 1 mg/kg, iv by LC-MS/MS analysis; assay type: ADME, organism-based; conditions: in vivo
[11] = Half life in mouse at 3 mg/kg, po by LC-MS/MS analysis; assay type: ADME, organism-based; conditions: in vivo
[12] = Cmax in mouse at 3 mg/kg, po by LC-MS/MS analysis; assay type: ADME, organism-based; design: dose 3 mg/kg, route oral; conditions: in vivo
[13] = AUC (0 to t) in mouse at 3 mg/kg, po by LC-MS/MS analysis; assay type: ADME, organism-based; conditions: in vivo
[14] = Oral bioavailability in mouse at 3 mg/kg by LC-MS/MS analysis; assay type: ADME, organism-based; conditions: in vivo
[15] = Half life in mouse at 3 mg/kg, iv by LC-MS/MS analysis; assay type: ADME, organism-based; conditions: in vivo
[16] = Volume of distribution at steady state in mouse at 3 mg/kg, iv by LC-MS/MS analysis; assay type: ADME, organism-based; conditions: in vivo, read-out: Vdss
[17] = AUC (0 to t) in mouse at 3 mg/kg, iv by LC-MS/MS analysis; assay type: ADME, organism-based; conditions: in vivo
[18] = Clearance in mouse at 3 mg/kg, iv by LC-MS/MS analysis; assay type: ADME, organism-based; conditions: in vivo
[19] = target: Bromodomain-containing protein 3 (Homo sapiens, UniProt Q15059); experiment: Binding affinity to human partial length BRD3 BD2 (G306 to P416 residues) expressed in bacterial expression system by bromoscan assay
Bromodomain-containing protein 3, sequence (Q15059 whole entry, the tested form may be a part): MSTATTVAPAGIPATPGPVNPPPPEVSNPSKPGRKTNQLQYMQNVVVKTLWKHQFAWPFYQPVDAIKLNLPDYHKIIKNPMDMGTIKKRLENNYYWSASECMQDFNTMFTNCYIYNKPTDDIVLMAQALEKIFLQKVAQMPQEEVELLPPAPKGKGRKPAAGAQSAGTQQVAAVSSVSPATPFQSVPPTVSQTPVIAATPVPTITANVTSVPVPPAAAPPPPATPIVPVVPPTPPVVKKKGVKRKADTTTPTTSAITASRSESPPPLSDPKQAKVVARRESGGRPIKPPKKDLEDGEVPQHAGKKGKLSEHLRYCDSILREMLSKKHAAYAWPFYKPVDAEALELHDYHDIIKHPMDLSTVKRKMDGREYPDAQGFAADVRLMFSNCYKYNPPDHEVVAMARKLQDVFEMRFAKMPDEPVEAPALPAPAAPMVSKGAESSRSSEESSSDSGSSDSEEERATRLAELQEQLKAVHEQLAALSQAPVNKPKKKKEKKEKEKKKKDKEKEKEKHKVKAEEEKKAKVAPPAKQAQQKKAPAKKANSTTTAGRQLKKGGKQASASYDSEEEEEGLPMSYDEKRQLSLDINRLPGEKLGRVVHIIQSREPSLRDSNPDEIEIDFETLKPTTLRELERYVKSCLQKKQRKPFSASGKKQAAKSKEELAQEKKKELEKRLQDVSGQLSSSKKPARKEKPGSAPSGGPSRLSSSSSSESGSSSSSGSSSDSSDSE

Kasumi 1 = experiment: Antiproliferative activity against human Kasumi-1 cells assessed as reduction in cell viability measured after 72 hrs by Celltitre-glo luminescence assay; assay type: functional, cell-based; conditions: Kasumi 1, 72 h
RS4-11 = experiment: Antiproliferative activity against human RS4:11 cells assessed as reduction in cell viability measured after 72 hrs by Celltitre-glo luminescence assay; assay type: functional, cell-based; conditions: RS4-11, 72 h
MM1.S = experiment: Antiproliferative activity against human MM1S cells assessed as reduction in cell viability measured after 72 hrs by Celltitre-glo luminescence assay; assay type: functional, cell-based
[20] = target: Bromodomain-containing protein 4 (Homo sapiens, UniProt O60885); experiment: Inhibition of BRD4 in human MV4-11 cells assessed as up regulation of p21 expression measured after 6 to 24 hrs by Western blot analysis; assay type: cell-based
[21] = Half life in dog liver microsomes at 0.1 uM preincubated for 10 mins followed by NADPH addition and measured up to 60 mins by LC-MS/MS analysis; assay type: ADME, Canis lupus familiaris, Microsome
[22] = Half life in monkey liver microsomes at 0.1 uM preincubated for 10 mins followed by NADPH addition and measured up to 60 mins by LC-MS/MS analysis; assay type: ADME, Macaca mulatta, Microsome; conditions: rhesus monkey
[23] = Clearance in dog liver microsomes at 0.1 uM preincubated for 10 mins followed by NADPH addition and measured up to 60 mins by LC-MS/MS analysis; assay type: ADME, Canis lupus familiaris, Microsome; conditions: 1 h
Cytochrome P450 1A2 = target: T1, Cytochrome P450 1A2 (Homo sapiens, UniProt P05177); experiment: Inhibition of CYP1A2 in human liver microsomes using phenacetin as substrate preincubated for 10 mins followed by NADPH addition and measured after 15 mins by LC-MS/MS analysis; assay type: ADME
T1 sequence (P05177 whole entry): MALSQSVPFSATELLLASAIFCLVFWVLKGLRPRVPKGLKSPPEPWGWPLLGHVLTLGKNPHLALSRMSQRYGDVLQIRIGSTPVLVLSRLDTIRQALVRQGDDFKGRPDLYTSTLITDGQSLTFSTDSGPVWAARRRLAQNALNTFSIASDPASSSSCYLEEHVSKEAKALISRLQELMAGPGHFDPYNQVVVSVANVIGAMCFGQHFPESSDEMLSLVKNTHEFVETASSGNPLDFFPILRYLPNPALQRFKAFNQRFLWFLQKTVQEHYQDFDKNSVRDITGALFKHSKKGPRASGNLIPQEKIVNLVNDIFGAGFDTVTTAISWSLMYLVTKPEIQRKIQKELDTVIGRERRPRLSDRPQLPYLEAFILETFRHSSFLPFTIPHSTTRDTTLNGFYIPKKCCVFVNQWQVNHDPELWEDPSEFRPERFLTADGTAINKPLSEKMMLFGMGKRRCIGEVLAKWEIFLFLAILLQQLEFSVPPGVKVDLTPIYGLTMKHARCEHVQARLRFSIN

Cytochrome P450 2C9 = Cytochrome P450 2C9 (Homo sapiens, UniProt P11712); experiment: Inhibition of CYP2C9 in human liver microsomes using tolbutamide as substrate preincubated for 10 mins followed by NADPH addition and measured after 15 mins by LC-MS/MS analysis; assay type: ADME
Cytochrome P450 2C9, sequence (P11712 whole entry): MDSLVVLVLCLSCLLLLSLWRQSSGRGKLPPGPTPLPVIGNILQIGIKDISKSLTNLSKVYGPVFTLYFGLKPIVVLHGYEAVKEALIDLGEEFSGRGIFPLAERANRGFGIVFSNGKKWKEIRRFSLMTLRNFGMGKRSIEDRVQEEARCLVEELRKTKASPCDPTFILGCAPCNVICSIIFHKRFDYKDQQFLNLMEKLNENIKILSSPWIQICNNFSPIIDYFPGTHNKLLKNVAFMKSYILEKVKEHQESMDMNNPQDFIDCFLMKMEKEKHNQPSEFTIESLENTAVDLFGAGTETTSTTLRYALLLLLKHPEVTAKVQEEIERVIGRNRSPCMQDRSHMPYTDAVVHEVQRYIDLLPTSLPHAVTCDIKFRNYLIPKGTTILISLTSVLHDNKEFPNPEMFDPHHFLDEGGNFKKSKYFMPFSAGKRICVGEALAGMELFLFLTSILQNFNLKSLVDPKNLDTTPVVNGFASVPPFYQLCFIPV

Cytochrome P450 2D6 = Cytochrome P450 2D6 (Homo sapiens, UniProt P10635); experiment: Inhibition of CYP2D6 in human liver microsomes using dextromethorphan as substrate preincubated for 10 mins followed by NADPH addition and measured after 15 mins by LC-MS/MS analysis; assay type: ADME
Cytochrome P450 2D6, sequence (P10635 whole entry): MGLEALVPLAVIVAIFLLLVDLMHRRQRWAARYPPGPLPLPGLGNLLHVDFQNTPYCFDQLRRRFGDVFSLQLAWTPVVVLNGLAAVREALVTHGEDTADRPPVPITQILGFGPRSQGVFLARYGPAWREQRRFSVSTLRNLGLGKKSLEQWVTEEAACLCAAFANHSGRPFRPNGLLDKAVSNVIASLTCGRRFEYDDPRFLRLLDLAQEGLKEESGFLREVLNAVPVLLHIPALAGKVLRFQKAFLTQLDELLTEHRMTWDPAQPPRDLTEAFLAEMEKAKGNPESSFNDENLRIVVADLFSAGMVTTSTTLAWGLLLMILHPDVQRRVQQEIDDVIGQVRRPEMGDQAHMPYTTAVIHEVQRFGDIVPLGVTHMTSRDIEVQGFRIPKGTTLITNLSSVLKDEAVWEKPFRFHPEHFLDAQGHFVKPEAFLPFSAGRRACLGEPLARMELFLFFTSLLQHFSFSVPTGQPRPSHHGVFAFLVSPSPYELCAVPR

Cytochrome P450 3A4 [24] = target: T2, Cytochrome P450 3A4 (Homo sapiens, UniProt P08684); experiment: Inhibition of CYP3A4 in human liver microsomes using testosterone as substrate preincubated for 10 mins followed by NADPH addition and measured after 15 mins by LC-MS/MS analysis; assay type: ADME
T2 sequence (P08684 whole entry): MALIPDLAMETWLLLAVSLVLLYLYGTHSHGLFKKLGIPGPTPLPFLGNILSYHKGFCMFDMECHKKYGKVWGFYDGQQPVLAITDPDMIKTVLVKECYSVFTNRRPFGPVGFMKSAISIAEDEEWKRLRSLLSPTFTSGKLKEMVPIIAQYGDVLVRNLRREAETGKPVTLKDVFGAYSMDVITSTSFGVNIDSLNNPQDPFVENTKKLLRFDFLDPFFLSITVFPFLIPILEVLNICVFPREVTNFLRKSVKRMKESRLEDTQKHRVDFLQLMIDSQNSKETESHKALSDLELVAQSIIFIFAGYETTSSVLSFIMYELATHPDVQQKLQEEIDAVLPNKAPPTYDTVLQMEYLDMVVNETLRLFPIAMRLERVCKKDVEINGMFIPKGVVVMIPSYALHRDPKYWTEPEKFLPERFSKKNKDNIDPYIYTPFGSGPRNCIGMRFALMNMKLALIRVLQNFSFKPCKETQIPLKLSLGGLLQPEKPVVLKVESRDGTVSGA

Cytochrome P450 3A4 [25] = target: T2, Cytochrome P450 3A4; experiment: Inhibition of CYP3A4 in human liver microsomes using midazolam as substrate preincubated for 10 mins followed by NADPH addition and measured after 15 mins by LC-MS/MS analysis; assay type: ADME
[26] = target: Voltage-gated inwardly rectifying potassium channel KCNH2 (Homo sapiens, UniProt Q12809); experiment: Inhibition of human ERG at 40 uM by Qpatch automatic patch clamp method
Voltage-gated inwardly rectifying potassium channel KCNH2, sequence (Q12809 whole entry): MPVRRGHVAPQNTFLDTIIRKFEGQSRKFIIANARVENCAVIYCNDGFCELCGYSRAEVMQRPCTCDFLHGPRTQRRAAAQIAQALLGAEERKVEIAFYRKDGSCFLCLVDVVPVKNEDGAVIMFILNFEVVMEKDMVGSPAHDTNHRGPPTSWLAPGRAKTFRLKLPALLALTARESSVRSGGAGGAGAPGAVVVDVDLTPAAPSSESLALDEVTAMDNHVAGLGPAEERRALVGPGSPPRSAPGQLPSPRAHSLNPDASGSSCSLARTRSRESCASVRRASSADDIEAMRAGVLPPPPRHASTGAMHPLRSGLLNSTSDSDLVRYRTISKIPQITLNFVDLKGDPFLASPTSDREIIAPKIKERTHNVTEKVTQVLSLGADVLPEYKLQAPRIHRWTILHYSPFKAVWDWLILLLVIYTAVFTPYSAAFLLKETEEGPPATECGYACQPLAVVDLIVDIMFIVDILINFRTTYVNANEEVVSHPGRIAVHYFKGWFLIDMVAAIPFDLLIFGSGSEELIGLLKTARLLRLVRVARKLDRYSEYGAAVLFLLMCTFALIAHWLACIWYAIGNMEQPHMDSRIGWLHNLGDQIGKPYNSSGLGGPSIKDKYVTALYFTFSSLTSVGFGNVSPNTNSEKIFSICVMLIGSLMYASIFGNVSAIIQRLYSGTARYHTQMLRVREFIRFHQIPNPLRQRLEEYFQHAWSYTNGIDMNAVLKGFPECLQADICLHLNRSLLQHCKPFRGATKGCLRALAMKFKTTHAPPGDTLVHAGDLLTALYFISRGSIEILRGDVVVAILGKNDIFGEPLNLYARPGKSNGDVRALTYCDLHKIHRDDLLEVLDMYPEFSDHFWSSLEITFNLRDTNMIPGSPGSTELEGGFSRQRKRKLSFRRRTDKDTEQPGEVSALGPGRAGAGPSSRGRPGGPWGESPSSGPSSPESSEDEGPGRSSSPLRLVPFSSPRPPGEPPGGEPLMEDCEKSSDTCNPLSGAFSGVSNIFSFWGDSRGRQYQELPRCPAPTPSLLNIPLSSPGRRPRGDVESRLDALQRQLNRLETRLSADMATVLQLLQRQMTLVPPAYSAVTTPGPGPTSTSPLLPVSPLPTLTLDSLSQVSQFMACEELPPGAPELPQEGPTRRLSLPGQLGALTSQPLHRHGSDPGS

MV4-11 = experiment: Antitumor activity against human MV4-11 cells xenografted in mouse assessed as tumor growth inhibition at 6.25 mg/kg, po administered for 28 days and measured every 2 to 3 days during compound dosing relative to control; assay type: functional; conditions: MV4-11, po, read-out: TGI
[27] = Toxicity in human MV4-11 cells xenografted mouse assessed as change in body weight at 6.25 to 12.5 mg/kg, po administered for 28 days and measured every 2 to 3 days during compound dosing; assay type: organism-based; conditions: in vivo

CCS(=O)(=O)Cc1cnc(Oc2ccc(F)cc2F)c(-c2cc(C)c3c(=O)[nH]ccn23)c1
Intrinsic clearance [1]: 64.8 mL/min/g | Microsomal intrinsic clearance [2]: 25.4 mL/min/g | half-life at 0.1 µM [3]: 2.87 h | half-life at 0.1 µM [4]: 0.54 h | half-life at 0.1 µM [5]: 1.38 h | half-life [6]: 3.6 h | Cmax [7]: 159 ng/mL | AUC(0-t) [8]: 884 ng·h/mL | half-life [9]: 1.3 h | clearance [10]: 21.5 mL/min/kg | half-life [11]: 1.3 h | Cmax [12]: 399 ng/mL | AUC(0-t) [13]: 1710 ng·h/mL | bioavailability [14]: 52.3% | half-life [15]: 0.9 h | Vd [16]: 0.782 L/kg | AUC(0-t) [17]: 3270 ng·h/mL | clearance [18]: 15.3 mL/min/kg | pKd [19]: 9.00 | pIC50 (Kasumi 1): 8.13 | pIC50 (RS4-11): 7.66 | pIC50 (MM1.S): 7.80 | inhibition [20]: Dose-dependent effect | half-life at 0.1 µM [21]: 1.39 h | half-life at 0.1 µM [22]: 0.817 h | CLH [23]: 25.2 mL/min/g | pIC50 (Cytochrome P450 1A2): < 4.70 | pIC50 (Cytochrome P450 2C9): < 4.70 | pIC50 (Cytochrome P450 2D6): < 4.70 | pIC50 (Cytochrome P450 3A4 [24]): < 4.70 | pIC50 (Cytochrome P450 3A4 [25]): < 4.70 | inhibition (INH) [26]: Not Active | inhibition in vivo at 6.25 mg/kg (MV4-11): 76.4% | Activity [27]: Non-Toxic
